pIC50: −log10 of the molar value.
Legend:
[1] = molecular target: KRAS G12C (Homo sapiens (Human), UniProt P01116, C118A/G12C); test: 2 h coupled exchange assay; format: biochemical; settings: Avg 2 h Coupled exchange IC50, 2 h compound pre-incubation
Protocol: The term “2 h coupled exchange assay” or “20 h coupled exchange assay” as used herein refers to the assay described in the Section entitled “BIOLOGICAL EVALUATION.”

[2] = system: MIA PaCa-2 (human pancreatic carcinoma) cells; test: Cell Viability Assay (CellTiter-Glo), MIA PaCa-2; format: cell-based; settings: Homo sapiens, MIA PaCa-2, 72 h
Protocol: Serially-diluted compound or DMSO was added to the cells, and plates were incubated at 37° C., 5% CO2 for 72 h. Cell viability was measured using a CellTiter-Glo® Luminescent Cell Viability Assay kit (Promega) according to the manufacturer's protocol. The luminescence signal of treated samples was normalized to DMSO control, and data were analyzed using a 4-parameter logistic model to calculate IC50 values.

[3] = system: A549 (human lung carcinoma) cells; test: Cell Viability Assay (CellTiter-Glo), A549; format: cell-based; settings: Homo sapiens, A549, 72 h
Procedure, shortened: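 MIA PaCa-2 or A549 cells in RPMI 1640 with 10% FBS were seeded at 1.67E+04 cells/mL and incubated overnight. Serially diluted compound was then added for 72 h at 37° C, 5% CO2. Viability read by CellTiter-Glo luminescence, normalized to DMSO, with IC50 from a 4-parameter logistic fit.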

Sequence of KRAS G12C (P01116 other isoform, or with tags, fused parts or gaps G12C/C118A): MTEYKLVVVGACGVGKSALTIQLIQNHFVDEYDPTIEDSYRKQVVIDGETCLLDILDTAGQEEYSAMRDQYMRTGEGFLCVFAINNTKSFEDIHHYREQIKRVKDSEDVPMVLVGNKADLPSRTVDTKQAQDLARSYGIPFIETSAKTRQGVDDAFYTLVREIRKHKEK

SMILES	pIC50 [1]	pIC50 [2]	pIC50 [3]
C=CC(=O)N1CC2(CCN(c3nc4cc(-c5c(C)nn(C)c5C)ccc4c(-c4ccccc4Cl)c3C#N)C2)C1 [Example 14-46, 4-(2-chlorophenyl)-2-(2-(2-propenoyl)-2,6-diazaspiro[3.4]octan-6-yl)-7-(1,3,5-trimethyl-1H-pyrazol-4-yl)-3-quinolinecarbonitrile]	6.95	6.34	5.62
C=CC(=O)N1CC2(CCN(c3nc4c(OC)cccc4c(-c4c(C)ccc5[nH]ncc45)c3C#N)C2)C1 [Example 14-47, 8-methoxy-4-(5-methyl-1H-indazol-4-yl)-2-(2-(2-propenoyl)-2,6-diazaspiro[3.4]octan-6-yl)-3-quinolinecarbonitrile]	6.32	< 5.30	< 5.30
C=CC(=O)N1CC2(CCN(c3nc4c(c(-c5c(C)ccc6cn[nH]c56)c3C#N)C[C@H]3C[C@@H]4C3(C)C)C2)C1 [Example 14-48, (1R,9R)-10,10-dimethyl-6-(6-methyl-1H-indazol-7-yl)-4-(2-(2-propenoyl)-2,6-diazaspiro[3.4]octan-6-yl)-3-azatricyclo[7.1.1.0^2,7]undeca-2,4,6-triene-5-carbonitrile]	7.21	7.28	< 5.30
C=CC(=O)N1CC2(CCN(c3nc4c(c(-c5cc(O)ccc5C)c3F)C[C@H]3C[C@@H]4C3(C)C)C2)C1 [Example 14-50, 1-(6-((1R,9R)-5-fluoro-6-(5-hydroxy-2-methylphenyl)-10,10-dimethyl-3-azatricyclo[7.1.1.0^2,7]undeca-2,4,6-trien-4-yl)-2,6-diazaspiro[3.4]octan-2-yl)-2-propen-1-one]	7.19	5.79	< 5.30
C=CC(=O)N1CC2(CCN(c3nc4c(c(-c5cc(O)cc6ccccc56)c3F)COC(C)(C)C4)C2)C1 [Example 14-68, 1-(6-(3-fluoro-4-(3-hydroxy-1-naphthalenyl)-7,7-dimethyl-7,8-dihydro-5H-pyrano[4,3-b]pyridin-2-yl)-2,6-diazaspiro[3.4]octan-2-yl)-2-propen-1-one]	7.30	7.04	< 5.30
C=CC(=O)N1CC2(CCN(c3nc4c(c(-c5c(C)ccc6[nH]ncc56)c3F)C[C@H]3C[C@@H]4C3(C)C)C2)C1 [Example 14-72, 1-(6-((1R,9R)-5-fluoro-10,10-dimethyl-6-(5-methyl-1H-indazol-4-yl)-3-azatricyclo[7.1.1.0^2,7]undeca-2,4,6-trien-4-yl)-2,6-diazaspiro[3.4]octan-2-yl)-2-propen-1-one]	7.52	7.62	< 5.30
C=CC(=O)N1CC2(CCN(c3nc4c(c(-c5cc(O)c(F)cc5Cl)c3C#N)C[C@H]3C[C@@H]4C3(C)C)C2)C1 [Example 14-84, (1R,9R)-6-(2-chloro-4-fluoro-5-hydroxyphenyl)-10,10-dimethyl-4-(2-(2-propenoyl)-2,6-diazaspiro[3.4]octan-6-yl)-3-azatricyclo[7.1.1.0^2,7]undeca-2,4,6-triene-5-carbonitrile]	6.84	5.67	< 5.30
C=CC(=O)N1CC2(CCN(c3nc4c(c(-c5ccc(F)cc5F)c3C)CC[C@@H](c3c(C)cnn3C)C4)C2)C1 [Example 14-93, 1-(6-((7R)-4-(2,4-difluorophenyl)-7-(1,4-dimethyl-1H-pyrazol-5-yl)-3-methyl-5,6,7,8-tetrahydro-2-quinolinyl)-2,6-diazaspiro[3.4]octan-2-yl)-2-propen-1-one]	6.87	6.45	4.91
C=CC(=O)N1CC2(CCN(c3nc4c(c(-c5cccc(F)c5O)c3C)CC[C@@H](c3c(C)cnn3C)C4)C2)C1 [Example 14-94, 1-(6-((7R)-7-(1,4-dimethyl-1H-pyrazol-5-yl)-4-(3-fluoro-2-hydroxyphenyl)-3-methyl-5,6,7,8-tetrahydro-2-quinolinyl)-2,6-diazaspiro[3.4]octan-2-yl)-2-propen-1-one]	6.64	6.93	4.84
C=CC(=O)N1CC2(CCN(c3nc4c(c(-c5cccc(F)c5O)c3C)CC[C@H](c3c(C)cnn3C)C4)C2)C1 [Example 14-95, 1-(6-((7S)-7-(1,4-dimethyl-1H-pyrazol-5-yl)-4-(3-fluoro-2-hydroxyphenyl)-3-methyl-5,6,7,8-tetrahydro-2-quinolinyl)-2,6-diazaspiro[3,4]octan-2-yl)-2-propen-1-one]	6.16	5.47	4.81
C=CC(=O)N1CC2(CCN(c3nc4c(c(-c5ccccc5Cl)c3C)CCC(c3c(C)cnn3C)C4)C2)C1 [Example 14-96, 1-(6-((7R)-4-(2-chlorophenyl)-7-(1,4-dimethyl-1H-pyrazol-5-yl)-3-methyl-5,6,7,8-tetrahydro-2-quinolinyl)-2,6-diazaspiro[3.4]octan-2-yl)-2-propen-1-one|1-(6-((7S)-4-(2-chlorophenyl)-7-(1,4-dimethyl-1H-pyrazol-5-yl)-3-methyl-5,6,7,8-tetrahydro-2-quinolinyl)-2,6-diazaspiro[3.4]octan-2-yl)-2-propen-1-one]	6.26	6.07	4.87
C=CC(=O)N1CC2(CCN(c3cc4c(c(-c5c(C)ccc6[nH]ncc56)c3C)COCC4)C2)C1 [Example 14-104, 1-(6-(7-methyl-8-(5-methyl-1H-indazol-4-yl)-3,4-dihydro-1H-2-benzopyran-6-yl)-2,6-diazaspiro[3.4]octan-2-yl)-2-propen-1-one]	6.62	6.68	< 5.30
C=CC(=O)N1CC2(CCN(c3nc4cc(-c5ccnn5C)ccc4c(-c4c(C)ccc5[nH]ncc45)c3C#N)C2)C1 [Example 15-1, 4-(5-methyl-1H-indazol-4-yl)-7-(1-methyl-1H-pyrazol-5-yl)-2-(2-(2-propenoyl)-2,6-diazaspiro[3.4]octan-6-yl)-3-quinolinecarbonitrile]	7.51	6.84	5.48
C=CC(=O)N1CC2(CCN(c3nc4cc(-c5scnc5C)ccc4c(-c4c(C)ccc5[nH]ncc45)c3C)C2)C1 [Example 15-3, 1-(6-(3-methyl-4-(5-methyl-1H-indazol-4-yl)-7-(4-methyl-1,3-thiazol-5-yl)-2-quinolinyl)-2,6-diazaspiro[3.4]octan-2-yl)-2-propen-1-one]	7.21	5.95	< 5.30

Results, then the compound that gave them:

pIC50 [1]	pIC50 [2]	pIC50 [3]	SMILES
6.96	6.87	< 5.30	C=CC(=O)N1CC2(CCN(c3nc4c(c(-c5cccc6cc(O)ccc56)c3C)COC(C)(C)C4)C2)C1 [Example 14-43, 1-(6-(4-(6-hydroxy-1-naphthalenyl)-3,7,7-trimethyl-7,8-dihydro-5H-pyrano[4,3-b]pyridin-2-yl)-2,6-diazaspiro[3.4]octan-2-yl)-2-propen-1-one]
7.03	6.87	< 5.30	C=CC(=O)N1CC2(CCN(c3nc4c(c(-c5ccc(F)c6sc(N)nc56)c3C#N)COC(C)(C)C4)C2)C1 [Example 14-56, 4-(2-amino-7-fluoro-1,3-benzothiazol-4-yl)-7,7-dimethyl-2-(2-(2-propenoyl)-2,6-diazaspiro[3.4]octan-6-yl)-7,8-dihydro-5H-pyrano[4,3-b]pyridine-3-carbonitrile]
7.05	5.92	< 5.30	C=CC(=O)N1CC2(CCN(c3nc4c(c(-c5c(C)ccc6cn[nH]c56)c3C#N)COC(C)(C)C4)C2)C1 [Example 14-80, 7,7-dimethyl-4-(6-methyl-1H-indazol-7-yl)-2-(2-(2-propenoyl)-2,6-diazaspiro[3.4]octan-6-yl)-7,8-dihydro-5H-pyrano[4,3-b]pyridine-3-carbonitrile]
6.97	6.38	< 5.30	C=CC(=O)N1CC2(CCN(c3nc4c(c(-c5cc(O)ccc5C(F)(F)F)c3C#N)COC(C)(C)C4)C2)C1 [Example 14-86, 4-(5-hydroxy-2-(trifluoromethyl)phenyl)-7,7-dimethyl-2-(2-(2-propenoyl)-2,6-diazaspiro[3.4]octan-6-yl)-7,8-dihydro-5H-pyrano[4,3-b]pyridine-3-carbonitrile]
7.41	7.17	< 5.30	C=CC(=O)N1CC2(CCN(c3nc4c(c(-c5c(C)c(Cl)cc6cnn(C)c56)c3C)COC(C)(C)C4)C2)C1 [Example 14-87, 1-(6-(4-(5-chloro-1,6-dimethyl-1H-indazol-7-yl)-3,7,7-trimethyl-7,8-dihydro-5H-pyrano[4,3-b]pyridin-2-yl)-2,6-diazaspiro[3.4]octan-2-yl)-2-propen-1-one]
7.80	7.70	< 5.30	C=CC(=O)N1CC2(CCN(c3nc4c(c(-c5c(C)c(Cl)cc6cn[nH]c56)c3C#N)COC(C)(C)C4)C2)C1 [Example 14-91, 4-(5-chloro-6-methyl-1H-indazol-7-yl)-7,7-dimethyl-2-(2-(2-propenoyl)-2,6-diazaspiro[3.4]octan-6-yl)-7,8-dihydro-5H-pyrano[4,3-b]pyridine-3-carbonitrile]
7.55	8.05	< 5.30	C=CC(=O)N1CC2(CCN(c3nc4c(c(-c5c(C)c(Cl)cc6cnn(C)c56)c3C#N)COC(C)(C)C4)C2)C1 [Example 14-92, 4-(5-chloro-1,6-dimethyl-1H-indazol-7-yl)-7,7-dimethyl-2-(2-(2-propenoyl)-2,6-diazaspiro[3.4]octan-6-yl)-7,8-dihydro-5H-pyrano[4,3-b]pyridine-3-carbonitrile]

From US20240059703A1 (AMGEN INC., priority 2021, published 2024)
